Results: publication PMC8244865, “Recruitment of phospholipase Cγ1 to the non-structural membrane protein pK15 of Kaposi Sarcoma-associated herpesvirus promotes its Src-dependent phosphorylation” (PLoS Pathogens, 2021)

B1: pK15 CT^WT: pK15 cytoplasmic tail fused to GST at its N-terminal end, phosphorylated in vitro by Src (protein)
chain: SQLLNEVELQEVNRDPPNVFGYASILVSGAEESREPSPQPDQSGMSILRVDGGSAFRIDTAQAATQPTDDLYEEVLFPRN
modifications: tyrosine-phosphorylated in vitro by Src; sites not stated for this construct; left off: GST, N-terminal, kept

What was measured:
[1] = test system: PLCγ1 tSH2 domain (Src-mediated phosphorylation, Y^783); assay: in vitro Src kinase assay, PLCγ1 tSH2 Y783 phosphorylation; type: biochemical; settings: 0.6 μM tSH2, 0.085 μM Src, 1.25–5 μM peptide or fixed 5.0 μM, 37°C, 1 hour or 45 min (method), pY783 Western blot
Description: Fig 7 The pK15 CT domain enhances Src-mediated phosphorylation of the PLCγ1 tSH2 domain. (A) The purified PLCγ1 tSH2 domain (0.6 μM) was incubated with limiting amounts (0.085 μM) of recombinant purified Src kinase expressed in insect cells in the presence of increasing concentrations (1.25–5 μM) of phosphorylated peptides representing the last 12 (pK15 12mer) or 35 (pK15 35mer) amino acids of the pK15 cytoplasmic domain for 1 hour at 37°C. The reaction was stopped using SDS sample buffer and analysed by SDS-PAGE and Western blot using an antibody to the PLCγ1 pY^783 residue (top panel) or to the His tag on the recombinant tSH2 domain (bottom panel). (B) Same as above, except that a fixed concentration (5.0 μM) of the 12mer peptide, the 35mer peptide or the pK15 truncation construct GST-pK15 CT^N2 [51] were used. The increased phosphorylation of the tSH2 domain in the presence of the 35mer peptide and pK15 CT^N2 can be seen. (C) Increasing concentrations of the phosphorylated pK15 12mer peptide were used to inhibit the increased src-mediated phosphorylation of tSH2 induced by 2.5 μM of the pK15 35mer peptide. Experimental conditions were as in panel A.
To test the impact of a pK15 CT fragment (pK15 CT^N2) or phosphorylated pK15 peptides representing the last 12 (DDLp[…]) or 35 ([…]pYEEVLFRN) amino acids of pK15 CT on the Src-mediated phosphorylation of the PLCγ1 tSH2 domain, GST-pK15CT^N2 was first phosphorylated with Src in vitro as described in the preceding paragraph. Phosphorylated GST-pK15 CT^N2 or the phosphorylated pK15 peptides, suspended in 50 mM Tris pH7.4, 300 mM NaCl, 1 mM DTT, were then added to the purified recombinant tSH2 domain (0.6 μM) together with a limiting amount of recombinant Src kinase (0.085 μM) in kinase buffer (20 mM Tris pH7.4, 20 mM NaCl, 1 mM DTT, 10 mM MgCl2, 0.2 mM ATP, 0.5 mM Sodium orthovanadate, 0.5 mM β-glycerophosphate) and the reaction allowed to proceed for 45 min. The reaction mix was then analysed by Western blot using an antibody to the phosphorylated Y^783 in the linker region of the PLCγ1 tSH2 domain and an antibody to the 5x His tag. To test the inhibitory effect of the phosphorylated 12mer pK15 peptide on the enhancement of PLCγ1 tSH2 domain phosphorylation induced by the pK15 35mer peptide, increasing concentrations (1.25–5.0 μM) of the 12mer peptide were added to a reaction mix containing the purified recombinant tSH2 domain (2.5 μM), the phosphorylated pK15 35mer (2.5 μM), and recombinant Src kinase (0.085 μM). Following a 45 min incubation at 37°C, the reaction mixture was analysed by Western blot as above.

[2] = test system: PLCγ1 SA and PLCγ1 tSH2, cSH2 R^694L mutant; assay: AlphaLISA, SA and tSH2 R694L mutant; type: binding; settings: phosphorylated; 300 nM each protein
Description: Fig 4 The PLCγ1 cSH2 domain is required for the binding of PLCγ1 to phosphorylated pK15 in vitro and may serve as a dominant-negative inhibitor. GST-fused pK15 cytoplasmic tail WT (A), or its truncated mutant N2 [51] (B), were phosphorylated in vitro by 2xStrep-Src and an AlphaLISA was performed with the indicated His-tagged fragments of PLCγ1. Mean and standard deviation from at least two independent experiments with two technical replicates each are depicted. GST fusion proteins of the N1 (C) or N2 (D) truncation mutants of the pK15 cytoplasmic tail were phosphorylated in vitro by 2xStrep-Src and their interaction with recombinant purified PLCγ1 tSH2 (tandem SH2) or SA (γ-specific array) domains was measured by AlphaLISA in the presence of increasing concentrations (300 nM, 600 nM, 900 nM, 1200 nM) of the purified PLCγ1 cSH2. […] After 48h lysates were collected and analysed by Western blot using an antibody to PLCγ1 pY^783 to assess the level of PLCγ1 phosphorylation. (F) The intensities of the pPLCγ1 bands shown in panel E were quantified by densitometry, normalized to the values obtained with the empty vector (EV) in the presence of pK15, and plotted as relative values. […]
His-tagged PLCγ1 (SA, tSH2 or the isolated SH2 domains) was incubated at room temperature with GST-tagged K15P or its mutants for 1 hour. […] Emission at 615 nm was detected on BioTek Synergy 2 plate reader.

| Molecule | effect on Src-mediated phosphorylation of PLCγ1 tSH2 ([1]; listed as 12mer pK15 peptide) | effect on Src-mediated phosphorylation of PLCγ1 tSH2 ([1]; listed as 12mer peptide) | effect on Src-mediated phosphorylation of PLCγ1 tSH2 [1] | interaction (AlphaLISA) [2] |
| --- | --- | --- | --- | --- |
| DDLpYEEVLFPRN [pK15 12mer, phosphorylated peptide representing the last 12 amino acids of pK15 CT (DDLp…)] | moderate inhibition | cannot enhance the Src-mediated phosphorylation of PLCγ1 |  |  |
| B1 |  |  | enhanced the Src-mediated phosphorylation of the PLCγ1 tSH2 domain | markedly reduced binding |
